Reference: EP3436445B1, “HISTONE DEMETHYLASE INHIBITORS” (Celgene Quanticel Research, Inc., priority 2016, dated 2017)

Assays:
Jarid1B = molecular target: T1, Jarid1B (Homo sapiens, UniProt Q9UGL1); test: Jarid1B in vitro enzyme inhibition assay (TR-FRET); format: biochemical; conditions: Table 5; 0.8 nM Jarid1B, H3K4me3-biotin labeled peptide; read-out: JARID1B IC5
T1 construct: purchased BPS Bioscience (or custom made by MolecularThroughput) 50121
T1 sequence (Q9UGL1 2-751): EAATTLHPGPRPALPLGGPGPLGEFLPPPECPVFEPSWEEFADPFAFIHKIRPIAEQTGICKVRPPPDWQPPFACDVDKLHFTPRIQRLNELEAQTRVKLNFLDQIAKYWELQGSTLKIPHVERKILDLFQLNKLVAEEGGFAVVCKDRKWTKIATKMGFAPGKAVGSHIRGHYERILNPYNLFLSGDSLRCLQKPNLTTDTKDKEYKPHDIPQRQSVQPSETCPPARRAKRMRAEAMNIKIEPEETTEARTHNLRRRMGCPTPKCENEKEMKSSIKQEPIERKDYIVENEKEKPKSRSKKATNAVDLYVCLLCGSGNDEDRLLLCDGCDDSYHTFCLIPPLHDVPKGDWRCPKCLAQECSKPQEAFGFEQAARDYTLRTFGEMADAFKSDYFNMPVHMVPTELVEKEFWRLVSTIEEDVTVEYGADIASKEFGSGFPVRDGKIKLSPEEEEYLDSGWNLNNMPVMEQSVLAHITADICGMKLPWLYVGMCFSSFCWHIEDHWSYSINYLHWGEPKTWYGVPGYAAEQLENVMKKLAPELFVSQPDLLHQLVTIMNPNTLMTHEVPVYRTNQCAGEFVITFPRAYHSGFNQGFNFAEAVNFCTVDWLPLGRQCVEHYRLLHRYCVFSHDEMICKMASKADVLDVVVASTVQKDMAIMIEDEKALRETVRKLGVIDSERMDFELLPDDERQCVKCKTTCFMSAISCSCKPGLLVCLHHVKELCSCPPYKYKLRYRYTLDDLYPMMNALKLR
Procedure, shortened: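 Baculovirus-expressed Jarid1B (AA 2-751) at 0.8 nM with 300 nM biotin-H3K4me3 peptide and 2 µM alpha-ketoglutarate in HEPES pH 7.3 with Fe(II), ascorbate and TCEP, 30 minutes at room temperature. EDTA-stopped; H3K4me1-2 product detected by TR-FRET (665/615 ratio); IC50 from 11-point dilutions.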

JMJD2C = molecular target: T2, JMJD2C (Homo sapiens, UniProt Q9H3R0); test: JMJD2C in vitro enzyme inhibition assay (TR-FRET); format: biochemical; conditions: Table 5; 0.3 nM JMJD2C, H3K9me3-biotin labeled peptide
T2 construct: purchased BPS Bioscience 50105
T2 sequence (Q9H3R0 2-372): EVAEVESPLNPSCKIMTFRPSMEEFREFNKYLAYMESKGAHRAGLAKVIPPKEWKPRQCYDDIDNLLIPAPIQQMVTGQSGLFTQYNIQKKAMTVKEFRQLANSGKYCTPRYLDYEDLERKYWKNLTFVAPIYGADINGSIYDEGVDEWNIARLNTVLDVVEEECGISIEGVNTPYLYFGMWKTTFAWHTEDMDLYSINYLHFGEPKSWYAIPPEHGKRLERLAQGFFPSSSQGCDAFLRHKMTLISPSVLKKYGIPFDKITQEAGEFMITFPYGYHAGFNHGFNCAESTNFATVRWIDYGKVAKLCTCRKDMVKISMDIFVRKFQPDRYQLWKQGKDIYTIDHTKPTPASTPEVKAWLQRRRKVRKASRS
Procedure, shortened: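 Baculovirus-expressed JMJD2C (AA 2-372), 0.3 nM, with 300 nM H3K9me3-biotin peptide and 2 µM alpha-ketoglutarate in pH 7.3 HEPES buffer containing ascorbate and Fe(II), 11-point inhibitor series, 30 min at room temperature. EDTA-stopped; H3K9me2 product detected by TR-FRET (Eu-antibody/streptavidin-APC), 665/615 ratio fitted for IC50.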

IC50 (Jarid1B) [nM] | IC50 (JMJD2C) [nM] | Structure (SMILES)
100 to 1000 | > 10000 | Cc1ccc(CCn2cnc(-c3cc(-c4nn[nH]c4C(F)(F)F)ccn3)c2)cc1 [Example 91, 2-{1-[2-(4-methylphenyl)ethyl]-1H-imidazol-4-yl}-4-[5-(trifluoromethyl)-1H-1,2,3-triazol-4-yl]pyridine]
100 to 1000 | > 10000 | FC(F)(F)c1[nH]nnc1-c1ccnc(-c2cn(Cc3ccccc3Cl)cn2)c1 [Example 64, 2-{1-[(2-chlorophenyl)methyl]-1H-imidazol-4-yl}-4-[5-(trifluoromethyl)-1H-1,2,3-triazol-4-yl]pyridine]
100 to 1000 | > 10000 | FC(F)(F)c1[nH]nnc1-c1ccnc(-c2cn(Cc3ccc(Cl)cc3)cn2)c1 [Example 63, 2-{1-[(4-chlorophenyl)methyl]-1H-imidazol-4-yl}-4-[5-(trifluoromethyl)-1H-1,2,3-triazol-4-yl]pyridine]
